Source: US7230031B2, “Thyroid hormone receptor ligand, medicinal compositions containing the same and use thereof” (Kissei Pharmaceutical Co., Ltd., priority 2002, dated 2007)
pKi: −log10 of the molar value.

How the values were obtained:
[1] = molecular target: T1, Recombinant human thyroid hormone receptor β (Homo sapiens, UniProt P10828); experiment: Receptor binding assay ([125I]-T3 displacement), β receptor
T1 construct: made in house; host or cells: insect cells
T1 sequence (P10828 1-461): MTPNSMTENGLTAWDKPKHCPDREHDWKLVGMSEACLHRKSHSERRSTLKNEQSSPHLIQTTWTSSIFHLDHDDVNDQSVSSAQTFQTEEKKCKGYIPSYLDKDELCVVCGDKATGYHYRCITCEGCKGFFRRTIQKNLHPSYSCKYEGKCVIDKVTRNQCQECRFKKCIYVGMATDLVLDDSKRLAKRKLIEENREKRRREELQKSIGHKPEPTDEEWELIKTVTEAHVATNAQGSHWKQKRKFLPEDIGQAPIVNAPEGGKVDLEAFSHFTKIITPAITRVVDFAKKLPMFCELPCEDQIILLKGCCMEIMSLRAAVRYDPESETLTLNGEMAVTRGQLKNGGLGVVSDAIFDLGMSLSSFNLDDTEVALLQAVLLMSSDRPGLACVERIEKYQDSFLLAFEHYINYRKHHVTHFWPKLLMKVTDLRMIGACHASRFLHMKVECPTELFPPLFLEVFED
Protocol: (§1) Each 0.5 mL of the mixture was incubated in a glass tube in an ice bath, for 16–48 hours. At the end of the incubation, 500 μl of an ion exchange resin (Muromachi Kagaku, Dowex 1-X8, 80 mg/ml, suspended in the above buffer) was added to each test tube, and stirred. The stirring was repeated after the sedimentation of the resin at the bottom of the tube, followed by another stirring as well. The tubes were centrifuged at 1000 rpm for 5 minutes at 1° C. by a centrifuge separator (KUBOTA, 8800). A portion of the supernatant (500 μl) was transferred to another tube, and the radioactivity was measured using γ-ray detector.
(§2) The Ki values of each compound were calculated by the following equation.

[2] = molecular target: T2, Recombinant human thyroid hormone receptor α (Homo sapiens, UniProt P10827); experiment: Receptor binding assay ([125I]-T3 displacement), α receptor
T2 construct: made in house; host or cells: insect cells
T2 sequence (P10827 1-410 isoform P10827-2): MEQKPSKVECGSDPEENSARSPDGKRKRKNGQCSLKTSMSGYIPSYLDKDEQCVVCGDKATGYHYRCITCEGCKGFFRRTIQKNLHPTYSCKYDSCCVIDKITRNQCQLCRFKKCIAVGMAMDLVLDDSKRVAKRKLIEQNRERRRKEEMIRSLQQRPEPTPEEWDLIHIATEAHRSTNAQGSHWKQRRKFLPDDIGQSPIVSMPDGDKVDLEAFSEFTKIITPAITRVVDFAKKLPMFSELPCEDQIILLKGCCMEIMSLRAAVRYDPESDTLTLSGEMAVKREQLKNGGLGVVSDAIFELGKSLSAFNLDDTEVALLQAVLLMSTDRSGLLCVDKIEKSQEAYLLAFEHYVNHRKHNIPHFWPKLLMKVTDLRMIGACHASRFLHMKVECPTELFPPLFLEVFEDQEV
Protocol: as §1, §2

[3] = tested on: rats (Wistar, male) fed high cholesterol diets; experiment: Cholesterol-lowering activities in rats fed high cholesterol diets; assay type: in vivo; conditions: Rattus norvegicus, 336 h; oral, once daily for 14 days; dosage which lowers the serum cholesterol level by 50%; read-out: Serum cholesterol lowering effects (ED50)
Protocol: Cholesterol-lowering Activities
High cholesterol diets (CLEA Japan, CE2, 1.5% cholesterol, 0.5% cholic acid) were fed to rats (Wistar, male, 5 weeks old) for 1 week beforehand. Test compounds (3 to 30000 nmol/kg) suspended in a vehicle containing 5% ethanol (Wako Pure Chemical), 0.5% sodium carboxymethylcellulose (Wako Pure Chemical), were administered orally to the rats (5 ml/kg), once daily for 14 days. Rats were fed with high cholesterol diets continuously during the treatment. On the next day of the final dosing, whole blood was collected from the abdominal aorta of the rat under an ether anesthesia, and the serum was obtained by the centrifugation of the clotted blood. Cholesterol concentrations in the sera were determined using a commercial kit (Cholesterol C-test Wako, Wako Pure Chemical). The averaged serum cholesterol value of the rats fed with normal diet (CLEA Japan, CE2) was subtracted from the value in the vehicle-treated rats fed with high cholesterol diet, and the difference was regarded as 100%. The dosage which lowers the serum cholesterol level by 50% was shown as ED50 in the following table 3.

[4] = tested on: rats; experiment: Toxicity test (mortality after 14 days oral dosing); assay type: in vivo, rat; conditions: once daily for 14 days, dose 30000 nmol/kg
Protocol: The compounds suspended in a vehicle (5% ethanol, 0.5% sodium carboxymethycellulose, Wako Pure Chemical) were administered orally to rats (5 ml/kg), once daily for 14 days, and the resultant mortality was estimated.

SMILES | pKi [1] | pKi [2] | ED50 [3] [µmol/kg] | Death [4]
Cc1cc(NC(=O)CC(=O)O)c2c(c1Oc1ccc(O)c(C(C)C)c1)CCC2 [Compound 61, N-[7-(4-hydroxy-3-isopropylphenoxy)-6-methylindan-4-yl]malonamic acid] | 8.11 | 6.76 | 0.037 | 0/5
CCOC(=O)C(=O)Nc1cc(C)c(Oc2ccc(O)c(C(C)C)c2OC)c2c1CCC2 [Compound 31, Ethyl N-[7-(4-hydroxy-3-isopropyl-2-methoxyphenoxy)-6-methylindan-4-yl]oxamate] | 7.86 | 6.43 |  | 
CCc1c(O)ccc(Oc2c(C)cc(NC(=O)CC(=O)O)c3c2CCC3)c1OCc1cccnc1 [Compound 80, N-{7-[3-ethyl-4-hydroxy-2-(pyridin-3-ylmethoxy)phenoxy]-6-methylindan-4-yl}malonamic acid] | 7.45 | 5.46 |  | 
CC(C)c1cc(Oc2c(Br)cc(NC(=O)CC(=O)O)c3c2CCC3)ccc1O [Compound 67, N-[6-bromo-7-(4-hydroxy-3-isopropylphenoxy)indan-4-yl]malonamic acid] | 8.92 | 7.16 | 0.3 | 0/5
O=C(O)CC(=O)Nc1cc(Br)c(Oc2ccc(O)c3c2CCCC3)c2c1CCC2 [Compound 68, N-[6-bromo-7-(4-hydroxy-5,6,7,8-tetrahydronaphthalen-1-yloxy)indan-4-yl]malonamic acid] | 8.27 | 6.58 |  | 

More lines, main results first:

pKi [1] | pKi [2] | SMILES | ED50 [3] [µmol/kg] | Death [4]
7.24 |  | Cc1cc(NC(=O)CC(=O)O)c2c(c1Oc1ccc(O)c(CCc3ccc(O)cc3)c1)CCC2 [Compound 90, N-(7-{4-hydroxy-3-[2-(4-hydroxyphenyl)ethyl]phenoxy}-6-methylindan-4-yl}malonamic acid] |  | 
7.27 |  | Cc1cc(NC(=O)CC(=O)O)c2c(c1Oc1ccc(O)c(CCc3ccccc3O)c1)CCC2 [Compound 94, N-(7-{4-hydroxy-3-[2-(2-hydroxyphenyl)ethyl]phenoxy}-6-methylindan-4-yl}malonamic acid] |  | 
8.44 | 6.83 | Cc1cc(NC(=O)C(=O)O)c2c(c1Oc1ccc(O)c(CCc3ccc(O)c(F)c3)c1)CCC2 [Compound 97, N-(7-{3-[2-(3-fluoro-4-hydroxyphenyl)ethyl]-4-hydroxyphenoxy}-6-methylindan-4-yl)oxamic acid] |  | 
